# In patent US12576084B2, “Methods for treating testicular and ovarian adrenal rest tumors” (Spruce Biosciences, Inc., priority 2018, dated 2026):
# How the values were obtained:
# [1] = system: CRF-induced locomotor behavior; experiment: CRF-induced locomotor behavior after i.c.v. administration of CRF; assay type: in vivo; conditions: oral, 10 mg/kg
# Description: (§1) FIG. 11A-11B. Graphic representation of an […] binding assay of a CRF1 antagonist (Compound 1); ^125I-sauvagine binding to rat cerebellar membranes one hour after oral administration of increasing Compound 1 doses (A) and in vivo inhibition of CRF-induced activity after treatment with a CRF1 antagonist; Compound 1 (oral, 10 mg/kg) (B).
# [2] = system: participants with classic CAH; experiment: Phase 2 study in classic CAH: safety and tolerability; assay type: in vivo, human; conditions: across both cohorts
# Description: (§2) An ongoing Phase 2 open-label study (Study Compound 2) is currently evaluating the safety and efficacy of Compound 1 dosed once daily for 6 weeks in adults with classic CAH. In the initial Cohort A of this study, all subjects are dosed starting at 200 mg/day for 14 days, escalating for each subject to 600 mg/day for 14 days, then 1000 mg/day for 14 days if the subject experiences no DLTs at the previous dose level. (FIGS. 2-3).
# (§3) The objectives of the study are: to assess the ability of Compound 1 to reduce excess ACTH and adrenal steroid production in participants with classic CAH on a stable gluococorticoid regimen; to evaluate the safety and tolerability of tildacerfont in participants with classic CAH; and to evaluate the pharmacokinetics (PK) of tildacerfont.
# (§4) One participant withdrew early because of an occupation-related scheduling conflict. In Cohort B, 9 participants were enrolled and received at least one dose of Compound 1. […] Thus, baseline characteristics are calculated for n=8 in Cohort B. One participant in Cohort B was taking both HC and prednisone.
# [3] = Phase 1 studies in healthy volunteers: pharmacokinetics; assay type: in vivo
# Description: The specification of study drug dosing at 10 pm and after consumption of a snack is based on information from the Phase 1 studies in healthy volunteers. The plasma Cmax (maximum concentration) for Compound 1 in the Phase 1 studies occurred approximately 5 hours after dosing. Therefore, Compound 1 will be dosed daily at 10 pm in this study in order to achieve peak plasma study drug concentration at the time of day when most adrenal androgens are produced. […] Specific dose reduction criteria, strict individual treatment stopping criteria, and appropriate laboratory and medical assessments have been established to ensure subject safety. (FIGS. 1A-1B).
# To date, a total of 53 subjects, all healthy adults aged 21 to 65 years, have been treated with at least 1 dose of Compound 1 in 2 Phase 1 studies. The first-in-human study of Compound 1 (Study I3C-FW-BLAA) evaluated single ascending doses of 2 mg to 800 mg. […] A subsequent study (Study I3C-FW-BLAB) evaluated repeat doses of 50 mg, 100 mg, or 200 mg Compound 1 once daily for 14 consecutive days.
# [4] = Phase 2 study in classic CAH: pharmacokinetics; assay type: in vivo, human; conditions: 200 to 1000 mg QD, patients with CAH
# Description: FIG. 2. Graphic representation of pharmacokinetics (dose-proportional, adequate exposure at safe doses) in patients with CAH following 14-days of once daily dosing at each dose level with a CRF1 antagonist (Compound 1).
# FIG. 3. Graphic representation of pharmacokinetics (dose-proportional, adequate exposure at safe doses) in patients with CAH following 14-days of once daily dosing at each dose level with a CRF1 antagonist (Compound 1).
# as §2, §3
# [5] = Nonclinical studies: liver function tests; assay type: in vivo; conditions: significantly higher doses
# Description: However, these events were not observed in the Phase 1 clinical studies. Clinical laboratory measures of liver chemistry will be assessed throughout this study, and strict individual treatment stopping criteria for liver chemistry findings are in place.
# [6] = target: T1, CRF1 receptor (Homo sapiens, UniProt P34998); experiment: Inhibition of adenylate cyclase activity (CRF1 receptor-mediated downstream cascade); assay type: biochemical; conditions: in vitro
# T1 sequence (P34998 24-415): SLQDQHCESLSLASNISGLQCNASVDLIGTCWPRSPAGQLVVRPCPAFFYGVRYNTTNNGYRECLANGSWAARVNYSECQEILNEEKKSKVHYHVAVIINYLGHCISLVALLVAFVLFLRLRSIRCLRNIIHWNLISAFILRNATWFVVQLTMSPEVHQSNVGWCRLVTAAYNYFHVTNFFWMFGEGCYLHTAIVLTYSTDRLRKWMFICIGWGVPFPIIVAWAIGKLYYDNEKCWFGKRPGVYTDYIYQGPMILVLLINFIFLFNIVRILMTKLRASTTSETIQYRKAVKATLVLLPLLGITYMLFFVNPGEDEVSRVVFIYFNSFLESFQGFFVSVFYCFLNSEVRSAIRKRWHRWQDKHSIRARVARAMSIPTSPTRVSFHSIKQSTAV
# [7] = system: testicular adrenal rest tumors (TART); experiment: TART size pre-treatment vs 6 weeks post-treatment in a patient with classic CAH; assay type: in vivo, human; conditions: person with classic CAH, 6 weeks treatment
# Description: FIG. 10A-10B. Images of a patient with TART pre-treatment with a CRF1 antagonist (Compound 1) (A) and 6-weeks post-treatment with a CRF1 antagonist (Compound 1) (B).
# FIGS. 10A-10B show approximately 25% shrinkage in TART in a person with classic congenital adrenal hyperplasia following 6 weeks treatment with a CRF1 receptor antagonist.
# [8] = system: beagle dogs; experiment: Repeat-dose oral toxicology study, 91 days, beagle dogs; assay type: in vivo, dog
# Description: (§5) The nonclinical safety profile of Compound 1 has been evaluated in repeat-dose range-finding and definitive toxicology studies of up to 91 days in duration in rats and dogs using the clinically relevant route (oral) and schedule of administration (once daily).
# [9] = target: T1, CRF1 receptor; experiment: In vitro and ex vivo CRF1 receptor binding studies
# Description: as §1
# [10] = system: ACTH, 17OHP and androstenedione (A4) in participants with classic CAH; experiment: Phase 2 open-label study in adults with classic CAH: change in ACTH, 17OHP and A4; assay type: in vivo, human
# Description: as §2
# 30% of subjects were in the normal range (*) after treatment with a CRF1 receptor antagonist.
# 50% of subjects were in the guideline range (*; 1200 ng/dL) after treatment with a CRF1 receptor antagonist.
# 50% of subjects were within the normal reference range after treatment with a CRF1 receptor antagonist.
# as §3
# • Adult males and females 18 years or older • Diagnosis of classic CAH due to 21-hydroxylase deficiency • Morning 17OHP≥800 ng/dL, before taking any morning GC dose • On a stable regimen of gluococorticoid replacement for ≥30 days before enrollment Exclusion Criteria: • Clinically significant unstable medical condition, illness, or chronic disease within 30 days of screening • Clinically significant psychiatric disorder • History of bilateral adrenalectomy or hypopituitarism Study Design
# FIG. 14 depicts the proof of concept and escalating QD dosing at 10 PM for Cohort A and the single dose level and BID dosing at 10 AM and 10 pm for Cohort B.
# as §4
# [11] = system: healthy volunteers; experiment: Phase 1 studies in healthy volunteers: safety and tolerability; assay type: in vivo
# Description: Clinical laboratory measures of testicular function (LH, FSH, inhibin B, and SHBG) will be assessed throughout this study to monitor the risk of testicular injury. Testicular ultrasounds and semen analysis will also be performed at screening/baseline and the end of the treatment period.
# Clinical laboratory measures of liver chemistry will be assessed throughout this study, and strict individual treatment stopping criteria for liver chemistry findings are in place.
# [12] = system: male rats; experiment: Fertility toxicology study in male rats; assay type: in vivo, rat
# Description: Additionally, a fertility toxicology study was conducted in rats. In this study, male rats were administered oral Compound 1 once daily at 0, 5, 20, or 1000 mg/kg for 85 to 87 days (70 days before mating, during mating, and ≤4 days between mating and necropsy). Male reproductive performance (mean day of mating, mating and fertility indices, and conception rates) was unaffected by Compound 1 treatment.
# [13] = system: rats; experiment: Repeat-dose oral toxicology study, 91 days, rats; assay type: in vivo, rat
# Description: as §5
# [14] = CAH subjects, FIGS. 4 and 5A-5B
# [15] = CAH subjects, FIGS. 6 and 7A-7B
# [16] = CAH subjects, FIGS. 8 and 9A-9B
# [17] = Cohort A (200, 600, 1000 mg QD)
# [18] = healthy human subjects, Phase 1
structure (smiles),measurement,setting,value
"CCC(CC)c1cc(C)nc2c(-c3sc(N4CCOCC4)nc3Cl)c(C)nn12 [Compound 1, tildacerfont]",inhibition of CRF-induced locomotor behavior,[1],significantly inhibit
same,most common type of adverse event (AE),[2],gastrointestinal disorders
same,serious AEs and AEs leading to withdrawal,[2],no serious AEs and no AEs leading to withdrawal
same,tolerability,[2],generally well tolerated
same,study drug absorption in a fasted state,[3],minimal study drug absorption
same,PK profile,[4],"predictable, dose-dependent PK profile"
same,laboratory abnormalities in liver function tests (LFTs),[5],have been observed at significantly higher doses
same,inhibition of adenylate cyclase activity,[6],functional potency to inhibit adenylate cyclase activity
same,shrinkage in TART,[7],approximately 25%
same,reversibility of findings,"[8]; beagle dogs, 6-week treatment-free recovery period",reversible
same,toxicologic findings,"[8]; beagle dogs, oral once daily, 91 days, up to 2000 mg/kg/day",all mild and limited to the male reproductive tract
same,effects on the thyroid gland,"[8]; dogs, 91 days, high-dose 2,000 mg/kg/day",effects on the thyroid gland were noted
same,testicular effects,"[8]; dogs, high-dose 2,000 mg/kg/day",reversible testicular effects (degeneration/atrophy)
same,affinity and selectivity for the hCRF1 receptor,[9],high affinity and selective for the hCRF1 receptor
same,subjects in the normal range for ACTH after treatment,[10]; [14],30 % of subjects
same,subjects who demonstrated >25% reduction in ACTH,[10]; [14],70 % of subjects
same,subjects who demonstrated reduction in ACTH,[10]; [14],80 % of subjects
same,subjects in the guideline range (1200 ng/dL) for 17-OHP after treatment,[10]; [15],50 % of subjects
same,subjects who demonstrated >25% reduction in ACTH (printed in the 17-OHP paragraph),[10]; [15],50 % of subjects
same,subjects who demonstrated reduction in 17-OHP,[10]; [15],80 % of subjects
same,subjects who demonstrated >25% reduction in androstenedione,[10]; [16],60 % of subjects
same,subjects within the normal reference range for androstenedione after treatment,[10]; [16],50 % of subjects
same,subjects who demonstrated reduction in androstenedione,"[10]; CAH subjects, at various doses, FIGS. 8 and 9A-9B",100 % of subjects
same,participants whose levels of 17OHP improved at ≥1 dose level,[10]; [17],8 out of 10
same,participants whose levels of A4 improved at ≥1 dose level,[10]; [17],10 out of 10
same,participants whose levels of ACTH improved at ≥1 dose level,[10]; [17],8 out of 10
same,Percentage change from baseline in 17OHP,"[10]; Cohort A, 200 mg QD (Week 2)",+22.2 (±172.3) %
same,Percentage change from baseline in A4,"[10]; Cohort A, 200 mg QD (Week 2)",−12.1 (±47.4) %
same,Percentage change from baseline in ACTH,"[10]; Cohort A, 200 mg QD (Week 2)",−25.7 (±51.6) %
same,Percentage change from baseline in 17OHP,"[10]; Cohort A, 600 mg QD (Week 4)",−23.7 (±64.2) %
same,Percentage change from baseline in A4,"[10]; Cohort A, 600 mg QD (Week 4)",−33.2 (±36.5) %
same,Percentage change from baseline in ACTH,"[10]; Cohort A, 600 mg QD (Week 4)",−60.1 (±37.5) %
same,Percentage change from baseline in 17OHP,"[10]; Cohort A, 1000 mg QD (Week 6)",−13.8 (±74.7) %
same,Percentage change from baseline in A4,"[10]; Cohort A, 1000 mg QD (Week 6)",−28.6 (±44.6) %
same,Percentage change from baseline in ACTH,"[10]; Cohort A, 1000 mg QD (Week 6)",−32.7 (±47.0) %
same,participants whose levels of 17OHP improved at ≥1 dose level,[10]; Cohort B (200 mg BID),6 out of 7
same,participants whose levels of A4 improved at ≥1 dose level,[10]; Cohort B (200 mg BID),6 out of 8
same,participants whose levels of ACTH improved at ≥1 dose level,[10]; Cohort B (200 mg BID),5 out of 7
same,Percentage change from baseline in 17OHP,"[10]; Cohort B, 200 mg BID (Weed 2)",−47.8 (±63.3) %
same,Percentage change from baseline in A4,"[10]; Cohort B, 200 mg BID (Weed 2)",−16.0 (±81.4) %
same,Percentage change from baseline in ACTH,"[10]; Cohort B, 200 mg BID (Weed 2)",−36.5 (±58.0) %
same,laboratory abnormalities in liver function tests (LFTs),[11]; Phase 1 clinical studies,not observed
same,"alterations in safety laboratory values, vital signs, or electrocardiograms (ECGs)",[11]; Phase 1 studies,no clinically significant alterations
same,"adverse events, single ascending doses","[11]; Study I3C-FW-BLAA, 2 mg to 800 mg, small number of subjects",diarrhea and headache of mild or moderate severity
same,"adverse events, repeat doses","[11]; Study I3C-FW-BLAB, 50, 100 or 200 mg once daily for 14 days, small number of subjects","dyspnea, rhinorrhea, palpitations, and headache"
same,"SAEs, AEs leading to discontinuation, dose-limiting toxicities",[11]; [18],"no SAEs, AEs leading to discontinuation, or dose-limiting toxicities (DLTs)"
same,tolerability,[11]; [18],well tolerated
same,effects on clinical laboratory markers of testicular function (LH and FSH),"[11]; healthy male volunteers, up to 200 mg per day for 14 consecutive days",no effects
same,maximum tolerated dose,[11]; humans,has not been reached
same,"male reproductive performance (mean day of mating, mating and fertility indices, conception rates)","[12]; male rats, oral once daily 5, 20 or 1000 mg/kg for 85 to 87 days",unaffected
same,impairment in fertility,"[12]; male reproductive studies in rodents, highest dose tested 1,000 mg/kg/day",no impairment in fertility
same,ovarian and uterine effects in untreated females mated with treated males,[12]; rats,no ovarian and uterine effects
same,reversibility of findings,[13]; 6-week treatment-free recovery period,reversible
same,testicular effects,"[13]; high-dose 2,000 mg/kg/day",reversible testicular effects (degeneration/atrophy)
same,toxicologic findings,"[13]; oral once daily, 91 days, up to 2000 mg/kg/day",all mild and limited to the male reproductive tract
